GI50 and TGI data for 49 compounds are collected here from PubChem BioAssay (NCI).

Where “and” joins values, the source holds several entries; their conditions need not be identical. Identical values can stand only once.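 Protocol summary: plate cells (96-well), add compound at 5 concentrations, incubate 48 h, interpolate endpoints linearly. At the GI50, growth is halved. The concentration for full growth arrest is given as TGI.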

For the first experiment, the system named is NCI/ADR-RES ovarian. Put plainly: growth of human tumour cells (NCI), 48 h.
For `CCNCCNc1cc(-c2ccc(C#N)cc2)c(C#N)c2nc3ccccc3n12`, the GI50 was 5.74 µM and the TGI stood at 36 µM.

As for `CCCCCCCCCCCCCC[n+]1cccc(C(N)=O)c1`, the GI50 is 25.6 µM and the TGI was greater than 80.3 µM.

For the compound `[2H]c1nc(=Nc2cc(NC(=O)C=C)c(N(C)CCN(C)C)cc2OC)[nH]c(-c2cn(C([2H])([2H])[2H])c3ccccc23)c1[2H]`, the GI50 was 1.39 µM and the TGI came to 5.02 µM.

In the case of `COc1cc2nc(-c3ccc(C(F)(F)F)cc3)cc(OCCCN3CCCC3)c2cc1OC`, the GI50 is 0.47 µM and the TGI was 39 µM.

As for `C/C1=C\CC[C@@](C)(O)[C@@H]2C[C@H](CC/C(C)=C/CC1)C1(CC1)C(=O)O2`, the GI50 is 28.3 µM and the TGI was greater than 100 µM.

Take `COc1ccc(C(=O)c2nc3ccccc3n2CC(=O)c2ccc(Cl)cc2)cc1`: the GI50 was 1.2 µM and the TGI is greater than 21.3 µM.

Turning to `O=C(NCCN1CCNCC1)c1ccc(Nc2nc3ccccc3c3occc23)cc1`, the GI50 was 21 µM and the TGI stood at 46.5 µM.

With `OCc1ccc(N2CCOCC2)cc1Cl`, the GI50 was greater than 100 µM and the TGI is greater than 100 µM.

The next experiment concerns LXFL 529 NSCLC. Put plainly: growth of human tumour cells (NCI), 48 h.
Regarding `Cc1c2ccncc2c(C)c2c1[nH]c1ccc(O)c(OCC(F)(F)F)c12`, the TGI is 15.5 µM.

The compound `O=C1[C@H]2ON(c3ccccc3)C(c3ccco3)[C@H]2C(=O)N1c1ccc(Cc2ccc(N3C(=O)[C@@H]4ON(c5ccccc5)C(c5ccco5)[C@@H]4C3=O)cc2)cc1` (stereo partly drawn) showed a TGI greater than 100 µM.

Turning to `Cc1cccc(C)c1N1C(=O)C(=O)C(c2nc3ccccc3s2)/C(=N/NC(=O)NN)C1=O` (stereo not drawn), the TGI was greater than 100 µM.

`CC(C)(C)c1ccc(OC2CCO2)cc1` (stereo not drawn) gave a TGI greater than 100 µM.

On to `CC(C)[O-].CC(C)[O-].O=c1cccccc1[O-].O=c1cccccc1[O-].[Ti+4]`, for which the GI50 is 31 µM and the TGI is greater than 100 µM.

The compound `COc1ccccc1NC(=O)/C(=C/c1ccccc1)C(C)=O` yielded a TGI greater than 100 µM.

`O=C(CC1(O)C(=O)Nc2c(Cl)ccc(Cl)c21)c1ccc(Cl)cc1Cl` (stereo not drawn) displayed a TGI of 29.3 µM.

With `CC1=NN(C(=O)c2ccncc2)C(=O)C1N=Nc1ccc(F)cc1` (stereo not drawn), the TGI is greater than 100 µM.

The compound `COc1ccc(C2Oc3c(c(O)cc4c3[C@H](c3ccc(O)cc3O)[C@H](O)C(c3ccc(O)c(O)c3)O4)C[C@@H]2O)cc1O` (stereo partly drawn) registered a TGI greater than 100 µM.

With `CC(C)(C)NCC(COc1ccc([N+](=O)[O-])cc1)OP(c1ccccc1)c1ccccc1` (stereo not drawn), the TGI was greater than 100 µM.

The test system of another experiment is PC-3 prostate. The experiment can be described thus: growth of human tumour cells (NCI), 48 h.
In turn, `O=C(Cl)C1=C(c2ccccc2)C1c1ccccc1` (stereo not drawn) had a TGI greater than 100 µM.

Regarding `O=C(/C=C/c1cccc(O)c1)c1cccc(-n2cc(-c3ccc4ccccc4c3)[nH]c2=O)c1`, the GI50 is 1.85 µM and the TGI was 7.9 µM.

`c1cnn2ncc(-c3ccnc(Nc4ccc5c(c4)OCCO5)n3)c2c1`: the GI50 was 0.0955 µM and the TGI was greater than 25 µM.

`Cc1ccc(-n2nc(C(C)(C)C)cc2NC(=O)NCc2cc(F)ccc2Oc2ccc3c(cnn3CCO)c2)cc1`: the GI50 is > 10 µM and 5.28 µM; the TGI is greater than 100 µM.

With `Cc1cc(C)n(C2=NS(=O)(=O)c3ccccc3N2C)n1`, the TGI was greater than 100 µM.

Consider `COc1cccc2c(=O)c3c(sc12)c(NCCCNCCO)nc1ccccc13`, for which the GI50 was 1.23 µM and the TGI amounted to 2.7 µM.

Compound `O=C1c2cccc3cccc(c23)C(=O)N1O` came in with a TGI greater than 100 µM.

Compound `O=C(O)c1ccccc1C(=O)c1ccc2c(c1)Cc1ccccc1-2` registered a TGI greater than 100 µM.

Compound `C=CC1=C(C)C2=NC1=CC1=NC(=CC3=C(C)C4=C(O)[C@H](C(=O)OC)C(=C5NC(=C2)[C@@H](C)[C@@H]5CCC(=O)O)C4=N3)C(CC)=C1C` displayed a TGI greater than 41.1 µM.

As to `CC(=Nc1ccc(S(N)(=O)=O)cc1)c1c(O)[nH]c2ccccc12`, the GI50 was greater than 25 µM and the TGI is greater than 25 µM.

`CCn1c(-c2nonc2N)nc2ccncc21`: the GI50 is greater than 25 µM and the TGI was greater than 25 µM.

As to `CC(C)[O-].CC(C)[O-].CN(CCN(C)Cc1cc(F)cc(F)c1[O-])Cc1cc(F)cc(F)c1[O-].[Ti+4]`, the GI50 is 1.23 µM and the TGI came out at 5.43 µM.

As to `CSc1ccc(N(C)c2nc(C)nc3c2CCC3)cc1`, the GI50 was less than 0.01 µM and the TGI came to 51.6 µM.

As to `Clc1ccc2c(c1)N(c1ncnc3ccc(-c4cnc5[nH]ncc5c4)cc13)CC2`, the GI50 was 0.458 µM and the TGI was greater than 100 µM.

Consider `O=C1/C(=C/c2ccc([N+](=O)[O-])cc2)COc2ccc(O)cc21`, for which the GI50 was 2.58 µM and the TGI stood at 7.27 µM.

On to `COc1ccc(-c2cnoc2-c2cc(OC)c3c(c2)OCCO3)cc1`, for which the GI50 was 0.0377 µM and the TGI was greater than 100 µM.

With `CC(C)Oc1ccc(C(=O)Cn2ccnc2)cc1-n1c(CN2CCN(C(=O)COc3ccc(Cl)cc3)CC2)nc2ccccc2c1=O`, the GI50 was 9.44 µM and the TGI stood at 37.2 µM.

For `COc1cccc(COc2cc(-n3cnc4ccccc43)sc2C(N)=O)c1`, the GI50 was greater than 25 µM and the TGI was greater than 25 µM.

`CCN(CC)c1ccc(/C=C/C2=[N+](C)c3ccccc3C2(C)C)c(C)c1`: the GI50 is 0.0225 µM and the TGI was 1.67 µM.

As to `Fc1ccc2nc(-c3cc(-c4ccc5c(c4)OCO5)n[nH]3)[nH]c2c1`, the GI50 is 3.61 µM and the TGI is greater than 82.3 µM.

As to `COC(=O)c1ccc2c(c1)C(=O)c1c-2n(CCCN=[N+]=[N-])c(=O)c2cc([N+](=O)[O-])ccc12`, the GI50 was greater than 100 µM and the TGI is greater than 100 µM.

In the case of `O=C(c1cccs1)C1NO[N+]([O-])=C1c1cccs1` (stereo not drawn), the GI50 was 8.43 µM and the TGI was 22.3 µM.

In the case of `CN1c2ccccc2SC2C(c3ccccc3)=NOC21` (stereo not drawn), the TGI was 71 µM.

As for `COc1c(O)c(OC)c2oc(-c3ccc(O)cc3)c(OC)c(=O)c2c1O`, the TGI is greater than 100 µM.

For the compound `COc1ccc(C2=C(N3CCc4ccccc43)C(=O)NC2=O)cc1`, the GI50 was greater than 20.2 µM and the TGI is greater than 25 µM.

Take `O=[N+]([O-])c1ccc(-c2cc3c(Nc4ccc(Cl)c(C(F)(F)F)c4)ncnc3s2)cc1`: the GI50 was 0.802 µM and the TGI was greater than 100 µM.

`Cc1cc2c(cc1Cl)S/C(=C/C(=O)O)C(Nc1cccc3nsnc13)=NS2(=O)=O`: the GI50 was 41 µM and the TGI was greater than 75.8 µM.

For the compound `COc1ccc(F)c(F)c1C(=O)c1cnc(NC2CCN(S(C)(=O)=O)CC2)nc1N`, the GI50 was 0.385 µM and 0.411 µM; the TGI is 5.44 µM and 5.92 µM.

On to `CCOC(=O)N1CCN(CCCCCOc2ccccc2C2CCCCC2)CC1`, for which the GI50 is 2.6 µM and the TGI came to 13 µM.

With `Nc1cc(-c2ccc(Cl)cc2)nn1-c1nnc(/C=C/c2ccco2)c(=O)[nH]1`, the GI50 is 8.95 µM and the TGI is greater than 75 µM.

As to `CCOc1ccc(Nc2c3ccccc3nc3ccccc23)cc1`, the GI50 was 0.392 µM and 0.748 µM; the TGI is 7.29 µM and 5.61 µM.

Regarding `CCNCCNc1cc(-c2ccc(C#N)cc2)c(C#N)c2nc3ccccc3n12`, the GI50 was 7.41 µM and the TGI was 20.7 µM.

Turning to `CCCCCCCCCCCCCC[n+]1cccc(C(N)=O)c1`, the GI50 is 0.598 µM and the TGI amounted to 2.94 µM.

In the case of `[2H]c1nc(=Nc2cc(NC(=O)C=C)c(N(C)CCN(C)C)cc2OC)[nH]c(-c2cn(C([2H])([2H])[2H])c3ccccc23)c1[2H]`, the GI50 is 1.61 µM and the TGI was 3.5 µM.

As for `COc1cc2nc(-c3ccc(C(F)(F)F)cc3)cc(OCCCN3CCCC3)c2cc1OC`, the GI50 is 1.14 µM and the TGI stood at 9.79 µM.

For `C/C1=C\CC[C@@](C)(O)[C@@H]2C[C@H](CC/C(C)=C/CC1)C1(CC1)C(=O)O2`, the GI50 was 27.8 µM and the TGI was found to be 69.4 µM.

With `COc1ccc(C(=O)c2nc3ccccc3n2CC(=O)c2ccc(Cl)cc2)cc1`, the GI50 is 3.09 µM and the TGI is greater than 100 µM.

Consider `O=C(NCCN1CCNCC1)c1ccc(Nc2nc3ccccc3c3occc23)cc1`, for which the GI50 was 11.1 µM and the TGI was determined as 29.8 µM.

Turning to `OCc1ccc(N2CCOCC2)cc1Cl`, the GI50 was greater than 100 µM and the TGI is greater than 100 µM.
